How the values were obtained:
OPM-2 = assay: WST anti-proliferative assay, multiple myeloma cell line OPM-2; format: cell-based; conditions: Homo sapiens; OPM-2 cells, 72 hours, CCK-8
Source text: (§1) WST Anti-Proliferative Assay and Assessment of Growth Inhibitory of Novel Compounds in Multiple Myeloma Cell Lines.

HDAC6 = target: T1, HDAC6 (Homo sapiens, UniProt Q9UBN7); assay: Tubulin acetylation cytoblot assay (A549 cells); format: cell-based; conditions: 17-18 h incubation, tubulin acetylation as marker of HDAC6 inhibition, read-out: Tub-Ac EC50
T1 construct: endogenous in cells; host or cells: A549 cells
T1 sequence (Q9UBN7 1-1215): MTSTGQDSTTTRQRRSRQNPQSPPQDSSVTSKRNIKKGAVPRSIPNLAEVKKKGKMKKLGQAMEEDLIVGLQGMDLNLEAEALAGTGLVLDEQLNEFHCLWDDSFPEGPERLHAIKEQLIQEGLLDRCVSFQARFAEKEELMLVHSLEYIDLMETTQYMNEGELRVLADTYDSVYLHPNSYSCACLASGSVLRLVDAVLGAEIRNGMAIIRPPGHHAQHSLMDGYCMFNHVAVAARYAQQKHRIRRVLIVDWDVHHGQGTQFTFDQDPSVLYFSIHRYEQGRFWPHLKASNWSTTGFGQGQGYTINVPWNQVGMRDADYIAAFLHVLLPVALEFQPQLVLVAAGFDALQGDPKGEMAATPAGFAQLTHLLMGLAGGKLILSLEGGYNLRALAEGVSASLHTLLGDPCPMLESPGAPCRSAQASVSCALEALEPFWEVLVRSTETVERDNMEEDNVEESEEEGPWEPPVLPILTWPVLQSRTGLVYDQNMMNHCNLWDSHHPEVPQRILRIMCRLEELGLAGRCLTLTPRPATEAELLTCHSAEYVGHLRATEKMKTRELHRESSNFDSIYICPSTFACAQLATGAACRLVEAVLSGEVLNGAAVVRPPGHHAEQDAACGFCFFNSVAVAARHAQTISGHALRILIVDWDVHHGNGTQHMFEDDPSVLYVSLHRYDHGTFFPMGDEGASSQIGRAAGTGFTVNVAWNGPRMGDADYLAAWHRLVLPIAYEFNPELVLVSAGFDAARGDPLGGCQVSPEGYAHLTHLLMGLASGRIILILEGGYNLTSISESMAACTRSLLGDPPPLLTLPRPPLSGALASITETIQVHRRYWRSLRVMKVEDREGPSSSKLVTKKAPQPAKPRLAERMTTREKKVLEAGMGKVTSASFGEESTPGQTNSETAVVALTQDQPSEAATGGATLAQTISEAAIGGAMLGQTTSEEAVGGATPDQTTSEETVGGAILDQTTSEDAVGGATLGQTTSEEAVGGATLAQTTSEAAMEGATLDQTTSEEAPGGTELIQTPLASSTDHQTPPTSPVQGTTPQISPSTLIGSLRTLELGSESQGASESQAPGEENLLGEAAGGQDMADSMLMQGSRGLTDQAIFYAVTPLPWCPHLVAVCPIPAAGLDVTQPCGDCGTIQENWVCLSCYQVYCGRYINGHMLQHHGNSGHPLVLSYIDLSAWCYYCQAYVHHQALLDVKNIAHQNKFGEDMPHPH
Outline: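 Cells were exposed to compound for 17-18 h, then fixed with formaldehyde and permeabilized with cold MeOH. They were probed for 4 h at 4° C with anti-acetylated tubulin plus HRP anti-mouse IgG (each 1:750), and read by ECL luminescence. EC50 values came from curves normalized to top and bottom controls.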

RPMI-8226 = assay: WST anti-proliferative assay, multiple myeloma cell line RPMI-8226; format: cell-based; conditions: Homo sapiens, RPMI8226 cells, 72 hours, CCK-8
Source text: as §1

[1] = tested on: p21 promoter-luciferase construct; assay: p21 reporter gene induction (HeLa cells, p21 promoter-luciferase construct); conditions: for p21 RP3: relative gene level of p21 compared to MS275 at 3 μM; for p21 RP10: relative level of p21 compared to MS275 at 10 μM; for p21 RP30: relative level of p21 compared to MS275 at 30 μM;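 as to all read-outs here: transfected HeLa cells exposed to compound for 15 h, luciferase luminescence read from lysates, p21 promoter lacks p53 site, proxy for cellular HDAC1/2/3 inhibition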
recombinant human HDAC8 = target: T2, recombinant human HDAC8 (Homo sapiens, UniProt Q9BY41); assay: HDAC8 inhibition: recombinant HDAC8 fluorometric assay; format: biochemical; conditions: recombinant human HDAC8, substrate Ac-Arg-His-Lys-Lys(ε-acetyl)-AMC; read-out: HDAC8 IC50
T2 construct: made in house; host or cells: insect cells
T2 sequence (Q9BY41 1-377): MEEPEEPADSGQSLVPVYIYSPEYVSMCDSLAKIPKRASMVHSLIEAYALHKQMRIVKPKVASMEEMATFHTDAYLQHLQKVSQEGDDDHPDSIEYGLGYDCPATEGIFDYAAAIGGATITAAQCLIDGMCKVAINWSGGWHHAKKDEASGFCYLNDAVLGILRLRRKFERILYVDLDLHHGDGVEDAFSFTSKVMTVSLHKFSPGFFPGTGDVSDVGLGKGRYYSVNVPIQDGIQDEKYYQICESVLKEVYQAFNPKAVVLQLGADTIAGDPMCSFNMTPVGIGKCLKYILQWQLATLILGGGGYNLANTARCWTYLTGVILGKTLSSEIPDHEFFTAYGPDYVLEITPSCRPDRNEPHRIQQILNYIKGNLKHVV
Outline: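 Recombinant human HDAC8 from insect cells was preincubated with compound for 15 min at rt, then given Ac-Arg-His-Lys-Lys(ε-acetyl)-AMC substrate for 30 min at rt. IC50 came from normalized percent inhibition with curve fitting.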

SMILES	IC50 (OPM-2) [µM]	EC50 (HDAC6) [nM]	IC50 (RPMI-8226) [µM]	p21 RP3 [1]	p21 RP10 [1]	p21 RP30 [1]	IC50 (recombinant human HDAC8) [nM]
O=C(NO)c1ccc(NC2CCN(c3ccc(Cl)cc3)C2=O)cc1 (stereo not drawn) [Example 7, 4-[1-(4-Chloro-phenyl)-2-oxo-pyrrolidin-3-ylamino]-N-hydroxy-benzamide]	5.56	1410	8.79	−0.08	0.12	0.16	550
CC(C)(c1ccccc1)N1CCC(Nc2ccc(C(=O)NO)cc2)C1=O (stereo not drawn) [Example 47, N-Hydroxy-4-[1-(1-methyl-1-phenyl-ethyl)-2-oxo-pyrrolidin-3-ylamino]-benzamide]	3.62	3020	4.05	0.05	0.09	0.29	520
CC1(Nc2ccc(C(=O)NO)cc2)CCN(c2ccc(Cl)cc2)C1=O (stereo not drawn) [Example 60, 4-[1-(4-Chloro-phenyl)-3-methyl-2-oxo-pyrrolidin-3-ylamino]-N-hydroxy-benzamide]	3.94	530	8.11	0.80	0.16	0.07	920
O=C(NO)c1ccc(NC2CC(=O)N(c3ccc(F)cc3)C2)cc1 (stereo not drawn) [Example 70, 4-[1-(4-Fluoro-phenyl)-5-oxo-pyrrolidin-3-ylamino]-N-hydroxy-benzamide]	6.47	1710	10.7	−0.07	0.00	0.02	200
O=C(NO)c1ccc(NC2CC(=O)N(c3ccccc3Cl)C2)cc1 (stereo not drawn) [Example 71, 4-[1-(2-Chloro-phenyl)-5-oxo-pyrrolidin-3-ylamino]-N-hydroxy-benzamide]	3.46	810	5.62	0.13	0.06	0.04	1010
O=C(NO)c1ccc(NC2CC(=O)N(c3ccc(Cl)cc3)C2)cc1 (stereo not drawn) [Example 73, 4-[1-(4-Chloro-phenyl)-5-oxo-pyrrolidin-3-ylamino]-N-hydroxy-benzamide]	4.95	1470	6.49	0.12	0.04	0.04	1040
CC1(Nc2ccc(C(=O)NO)cc2)C(=O)N(c2cccc(Cl)c2)c2ccc(F)cc21 (stereo not drawn) [Example 98, 4-[1-(3-Chloro-phenyl)-5-fluoro-3-methyl-2-oxo-2,3-dihydro-1H-indol-3-ylamino]-N-hydroxy-benzamide]	–	190	–	2.13	3.06	0.00	1690
CC1(Nc2ccc(C(=O)NO)cc2)C(=O)N(Cc2ccccc2Cl)c2ccc(F)cc21 (stereo not drawn) [Example 99, 4-[1-(2-Chloro-benzyl)-5-fluoro-3-methyl-2-oxo-2,3-dihydro-1H-indol-3-ylamino]-N-hydroxy-benzamide]	–	150	–	0.95	0.62	0.00	1230
CC1(Nc2ccc(C(=O)NO)cc2)C(=O)N(c2cccc(Cl)c2)c2ccncc21 (stereo not drawn) [Example 100, 4-[1-(3-Chloro-phenyl)-3-methyl-2-oxo-2,3-dihydro-1H-pyrrolo[3,2-c]pyridin-3-ylamino]-N-hydroxy-benzamide]	–	710	–	0.45	0.13	0.31	720

Source: US8404738B2 (Hoffmann-La Roche Inc., priority 2011, dated 2013)
